In patent US20080004281A1, “METHODS FOR THE MODULATION OF CRP BY THE SELECTIVE MODULATION OF PPAR DELTA” (KALYPSYS, INC., priority 2006, published 2008):

System: plasma CRP
Test: Plasma CRP in hyperlipidemic obese rhesus macaques, dose-escalating treatment
Type: in vivo
Procedure: In the present study, n=6 male obese rhesus macaques were selected for the study and prepared with 4 weeks of diet run-in (week −4 to week 0). At week 0, blood samples were taken in order to determine baseline plasma levels of CRP were measured prior to beginning dosage with Compound 1 as tosylate salt. Dosage began on the same day at 6 mg/kg/day in divided doses, given with food, and continued for four weeks. Dose was subsequently escalated at 4-week intervals to 12 mg/kg/d, 24 mg/kg/d, and finally 48 mg/kg/day. Plasma samples were taken at the close of each 4-week regimen, and a final sample was taken after 4 weeks of washout following discontinuation of dosing.
Quantitative measurements of plasma CRP in each sample taken were made by LabCorp, Inc. (Laboratory Corporation of America) by a multi-calibrator based high sensitivity wide ranged method using a immunoturbidometric assay. The limit of quantitation for the assay was 0.05 mg/dL and the highest point on the calibrator was 32 mg/dL. Mean values as percent change from baseline, and standard deviation as percent change from baseline, were calculated across the group and are shown in Table 2. Mean values for weeks 8-16 fell below the limit of quantiatation, and no data could therefore be reported for the standard deviation.

`C[C@@H]1CN(c2ccc(OC(F)(F)F)cc2)C[C@H](C)N1S(=O)(=O)c1cccc2c1CC(C(=O)O)C2` (stereo partly drawn) [Compound 1, 4-[cis-2,6-Dimethyl-4-(4-trifluoromethoxy-phenyl)-piperazine-1-sulfonyl]-indan-2-carboxylic acid] was tested, and the “plasma CRP change” value (over 16 weeks of dose-escalating treatment, hyperlipidemic rhesus macaques) was “significantly reduced”, the “CRP levels during the washout period” value (washout period after 16 weeks of dosing) was “reverted back to the pre-treatment levels” and the Mean Plasma CRP (week 4, 6 mg/kg per day in divided doses with food, as tosylate salt, n=6 male obese rhesus macaques, baseline week 0 = 0.233) was 0.166 mg/dL. The Mean Plasma CRP (week 8, 12 mg/kg per day, as tosylate salt, LOQ 0.05) was < 0.05 mg/dL, the Mean Plasma CRP (week 12, 24 mg/kg per day, as tosylate salt, LOQ 0.05) was < 0.05 mg/dL and the Mean Plasma CRP (week 16, 48 mg/kg per day, as tosylate salt, LOQ 0.05) was < 0.05 mg/dL. For the same compound, the Mean Plasma CRP (week 20, after 4 weeks of washout following discontinuation of dosing (dose 0)) was 0.183 mg/dL.
